Source: ChEMBL document CHEMBL5543096 (J Med Chem, 2024)
Activity calls are given as the source filed them. No cut-off for these calls is given here.

What was measured:
Mus musculus [1] = assay: Antidepressant activity in Reserpine-induced depressive C57BL/6J mouse model assessed as decrease in immobility time at 0.3 mg/kg,ip administration measured after 30 mins by tail suspension test; assay type: functional, organism-based
Mus musculus [2] = assay: Antidepressant activity in Reserpine-induced depressive C57BL/6J mouse model assessed as decrease in immobility time at 0.3 mg/kg,ip administration measured after 7 days by tail suspension test; assay type: functional, organism-based; settings: time 7.0 day
Mus musculus [3] = assay: Antidepressant activity in Reserpine-induced depressive C57BL/6J mouse model assessed as decrease in immobility time at 0.1 to 1 mg/kg,ip administration measured after 7 days by tail suspension test; assay type: functional, organism-based; settings: dose 0.1-1 mg/kg, time 7.0 day
Mus musculus [4] = assay: Antidepressant activity in Reserpine-induced depressive C57BL/6J mouse model assessed as decrease in immobility time at 0.1 to 0.3 mg/kg,ip administration measured after 30 mins by tail suspension test; assay type: functional, organism-based; settings: dose 0.1-0.3 mg/kg
[5] = Toxicity in chronic restraint stress-induced depressive C57BL/6J mouse model assessed as decrease in percentage of spontaneous alternation at 1 mg/kg,ip administration by Y-maze test; assay type: organism-based; settings: in vivo
[6] = Toxicity in chronic restraint stress-induced depressive C57BL/6J mouse model assessed as decrease in percentage of spontaneous alternation at 2 mg/kg,ip administration by Y-maze test; assay type: organism-based; settings: in vivo
Mus musculus [7] = assay: Antidepressant activity in Reserpine-induced depressive C57BL/6J mouse model assessed as decrease in immobility time at 0.3 mg/kg,ip administration measured after 5 days by tail suspension test; assay type: functional, organism-based; settings: time 5.0 day
Mus musculus [8] = assay: Antidepressant activity in Reserpine-induced depressive C57BL/6J mouse model assessed as decrease in immobility time at 0.3 mg/kg,ip administration measured for 1 to 3 days by tail suspension test; assay type: functional, organism-based; settings: time 1-3 day
Mus musculus [9] = assay: Antidepressant activity in chronic restraint stress-induced depressive C57BL/6J mouse model assessed as increase in hippocampal BDNF mRNA expression at 0.3 mg/kg,ip administration measured after 8 hrs by qRT-PCR analysis; assay type: functional, organism-based

CCCCC(F)(CO)C(=O)O[C@@H]1C[C@@H]2[C@H]3O[C@H]3[C@H](C1)N2C (some centres not stated)
Activity (Mus musculus [1]): inactive
Activity (Mus musculus [2]): inactive

CN1[C@@H]2C[C@@H](OC(=O)C(F)(CCl)c3ccccc3)C[C@H]1[C@@H]1O[C@@H]12 (some centres not stated)
Activity (Mus musculus [1]): inactive
Activity (Mus musculus [2]): inactive

CN1[C@@H]2C[C@@H](OC(=O)[C@](F)(CO)c3ccccc3)C[C@H]1[C@@H]1O[C@@H]12
Activity (Mus musculus [3]): inactive
Activity (Mus musculus [4]): Active

CN1[C@@H]2C[C@@H](OC(=O)C(F)(CBr)c3ccccc3)C[C@H]1[C@@H]1O[C@@H]12 (some centres not stated)
Activity (Mus musculus [1]): inactive
Activity (Mus musculus [2]): inactive

CN1[C@@H]2C[C@@H](OC(=O)C(F)(CO)c3cccc(F)c3)C[C@H]1[C@@H]1O[C@@H]12 (some centres not stated)
Activity (Mus musculus [1]): Active
Activity (Mus musculus [2]): inactive

CN1[C@@H]2C[C@@H](OC(=O)[C@H](CO)c3ccccc3)C[C@H]1[C@@H]1O[C@@H]12 [SCOPOLAMINE]
Activity (Mus musculus [1]): Active
Activity [5]: Toxic
Activity [6]: Toxic
Activity (Mus musculus [7]): inactive
Activity (Mus musculus [8]): Active
Activity (Mus musculus [9]): Active
Activity (Mus musculus [2]): inactive

CN1[C@@H]2C[C@@H](OC(=O)C(F)(CO)Cc3ccccc3)C[C@H]1[C@@H]1O[C@@H]12 (some centres not stated)
Activity (Mus musculus [1]): Active
Activity (Mus musculus [2]): inactive

Cc1ccc(S(=O)(=O)OCC(F)(Cc2ccccc2)C(=O)O[C@@H]2C[C@@H]3[C@H]4O[C@H]4[C@H](C2)N3C)cc1 (some centres not stated)
Activity (Mus musculus [1]): inactive
Activity (Mus musculus [2]): inactive

CN1[C@@H]2CC[C@H]1C[C@@H](OC(=O)C(F)(CO)c1ccccc1)C2 (some centres not stated)
Activity (Mus musculus [1]): inactive
Activity (Mus musculus [2]): inactive

CN1[C@@H]2C[C@@H](OC(=O)C(F)(CO)CCCc3ccccc3)C[C@H]1[C@@H]1O[C@@H]12 (some centres not stated)
Activity (Mus musculus [1]): inactive
Activity (Mus musculus [2]): inactive

CN1[C@@H]2C[C@@H](OC(=O)C(F)(CN=[N+]=[N-])Cc3ccccc3)C[C@H]1[C@@H]1O[C@@H]12 (some centres not stated)
Activity (Mus musculus [1]): inactive
Activity (Mus musculus [2]): inactive

CN1[C@@H]2C[C@@H](OC(=O)C(F)(CI)c3ccccc3)C[C@H]1[C@@H]1O[C@@H]12 (some centres not stated)
Activity (Mus musculus [1]): inactive
Activity (Mus musculus [2]): inactive

CN1[C@@H]2C[C@@H](OC(=O)C(F)(CO)c3ccc(F)cc3)C[C@H]1[C@@H]1O[C@@H]12 (some centres not stated)
Activity (Mus musculus [2]): inactive

CN1[C@@H]2C[C@@H](OC(=O)C(F)(CBr)Cc3ccccc3)C[C@H]1[C@@H]1O[C@@H]12 (some centres not stated)
Activity (Mus musculus [1]): inactive
Activity (Mus musculus [2]): inactive

CN1[C@@H]2C[C@@H](OC(=O)C(F)c3ccccc3)C[C@H]1[C@@H]1O[C@@H]12 (some centres not stated)
Activity (Mus musculus [1]): inactive
Activity (Mus musculus [2]): inactive

CN1[C@@H]2C[C@@H](OC(=O)C(F)(CO)Cc3ccccc3F)C[C@H]1[C@@H]1O[C@@H]12 (some centres not stated)
Activity (Mus musculus [2]): inactive

C=CCC(F)(CCl)C(=O)O[C@@H]1C[C@@H]2[C@H]3O[C@H]3[C@H](C1)N2C (some centres not stated)
Activity (Mus musculus [1]): inactive
Activity (Mus musculus [2]): inactive

CN1[C@@H]2C[C@@H](OC(=O)C(F)(CCl)Cc3ccccc3)C[C@H]1[C@@H]1O[C@@H]12 (some centres not stated)
Activity (Mus musculus [1]): inactive
Activity (Mus musculus [2]): inactive

Cc1ccc(S(=O)(=O)OCC(F)(C(=O)O[C@@H]2C[C@@H]3[C@H]4O[C@H]4[C@H](C2)N3C)c2ccccc2)cc1 (some centres not stated)
Activity (Mus musculus [1]): inactive
Activity (Mus musculus [2]): inactive

CN1[C@@H]2C[C@@H](OC(=O)C(F)(CO)CCc3ccccc3)C[C@H]1[C@@H]1O[C@@H]12 (some centres not stated)
Activity (Mus musculus [1]): inactive
Activity (Mus musculus [2]): inactive

CN1[C@@H]2C[C@@H](OC(=O)C(F)(CO)c3ccccc3)C[C@H]1[C@@H]1O[C@@H]12 (some centres not stated)
Activity (Mus musculus [1]): Active
Activity (Mus musculus [2]): Active

CN1[C@@H]2C[C@@H](OC(=O)C(F)(CO)Cc3ccc(C(F)(F)F)cc3)C[C@H]1[C@@H]1O[C@@H]12 (some centres not stated)
Activity (Mus musculus [2]): inactive

C=CCC(F)(CO)C(=O)O[C@@H]1C[C@@H]2[C@H]3O[C@H]3[C@H](C1)N2C (some centres not stated)
Activity (Mus musculus [1]): inactive
Activity (Mus musculus [2]): inactive

CN1[C@@H]2C[C@@H](OC(=O)C(F)(CO)Cc3cccc4ccccc34)C[C@H]1[C@@H]1O[C@@H]12 (some centres not stated)
Activity (Mus musculus [2]): inactive

CN1[C@@H]2C[C@@H](OC(=O)C(F)(CO)Cc3ccccc3Br)C[C@H]1[C@@H]1O[C@@H]12 (some centres not stated)
Activity (Mus musculus [2]): inactive

CCCCC(F)(CCl)C(=O)O[C@@H]1C[C@@H]2[C@H]3O[C@H]3[C@H](C1)N2C (some centres not stated)
Activity (Mus musculus [1]): inactive
Activity (Mus musculus [2]): inactive
